Test results reported in ChEMBL document CHEMBL5625275, “Design, synthesis and biological evaluation of tanshinone IIA derivatives as NLRP3 inflammasome inhibitors” (Bioorg Med Chem Lett, 2024).
Active and inactive are the calls of the source. No cut-off for these calls is given here.

Experiments:
[1] = Cytotoxicity against mouse J774.A1 cells assessed as cell viability; type: toxicity, cell-based; settings: read-out: TC50 (the source's name)
[2] = target: NACHT, LRR and PYD domains-containing protein 3 (Mus musculus, UniProt Q8R4B8); assay: Inhibition of NLRP3 inflammasome in mouse J774.A1 cells assessed as inhibition of IL-1 beta secretion; type: cell-based
Chain of NACHT, LRR and PYD domains-containing protein 3 (Q8R4B8 whole entry, the tested form may be a part): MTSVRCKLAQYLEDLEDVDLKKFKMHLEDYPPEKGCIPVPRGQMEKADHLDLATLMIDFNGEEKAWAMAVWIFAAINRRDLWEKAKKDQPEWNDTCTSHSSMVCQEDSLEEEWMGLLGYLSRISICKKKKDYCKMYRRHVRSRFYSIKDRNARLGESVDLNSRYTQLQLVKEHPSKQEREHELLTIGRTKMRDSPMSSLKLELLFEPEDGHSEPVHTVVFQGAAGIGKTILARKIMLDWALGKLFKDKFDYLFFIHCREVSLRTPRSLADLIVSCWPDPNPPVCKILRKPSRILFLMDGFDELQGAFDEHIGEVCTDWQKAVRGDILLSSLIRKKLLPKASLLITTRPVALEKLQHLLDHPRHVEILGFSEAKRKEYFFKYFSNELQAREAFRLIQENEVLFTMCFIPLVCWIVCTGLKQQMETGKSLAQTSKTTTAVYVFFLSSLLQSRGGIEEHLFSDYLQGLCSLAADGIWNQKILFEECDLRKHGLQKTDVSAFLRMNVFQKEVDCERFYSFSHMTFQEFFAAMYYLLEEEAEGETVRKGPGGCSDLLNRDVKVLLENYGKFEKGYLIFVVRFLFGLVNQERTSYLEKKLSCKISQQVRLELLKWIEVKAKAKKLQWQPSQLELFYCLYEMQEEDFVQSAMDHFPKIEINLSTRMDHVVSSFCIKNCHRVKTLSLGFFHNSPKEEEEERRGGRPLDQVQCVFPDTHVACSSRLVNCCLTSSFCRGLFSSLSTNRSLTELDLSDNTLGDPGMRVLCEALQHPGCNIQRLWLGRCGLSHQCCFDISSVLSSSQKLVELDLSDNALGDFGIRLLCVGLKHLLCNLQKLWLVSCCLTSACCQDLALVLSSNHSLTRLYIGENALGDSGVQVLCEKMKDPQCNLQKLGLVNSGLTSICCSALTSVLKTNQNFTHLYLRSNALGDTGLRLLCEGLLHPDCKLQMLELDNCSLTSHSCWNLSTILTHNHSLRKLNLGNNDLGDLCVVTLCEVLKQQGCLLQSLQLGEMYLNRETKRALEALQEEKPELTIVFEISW

[3] = system: J774.A1; assay: Inhibition of intracellular ROS generation in LPS primed mouse J774.A1 cells assessed as decrease in ROS positive cells at 1 uM pretreated for 1 hr followed by nigericin treatment for 1 hr by DCFH-DA staining based fluorescence microscopy (reference value: 52%); type: functional; parameters: scale not given: the % may be the effect or the level left; settings: time 2 hrs
[4] = system: NLRP3 inflammasome; assay: Selectivity index, ratio of TC50 for mouse J774.A1 cells to IC50 for NLRP3 inflammasome in mouse J774.A1 cells; type: toxicity, cell-based; settings: read-out: Selectivity Index
[5] = system: J774.A1; assay: Inhibition of intracellular ROS generation in LPS primed mouse J774.A1 cells assessed as decrease in ROS positive cells at 5 uM pretreated for 1 hr followed by nigericin treatment for 1 hr by DCFH-DA staining based fluorescence microscopy (reference value: 52%); type: functional; parameters: scale not given: the % may be the effect or the level left; settings: time 2 hrs
[6] = system: J774.A1; assay: Inhibition of intracellular ROS generation in LPS primed mouse J774.A1 cells pretreated for 1 hr followed by nigericin treatment for 1 hr by DCFH-DA staining based fluorescence microscopy; type: functional, cell-based; settings: dose 1-5 µM, time 2.0 hrs
[7] = target: NACHT, LRR and PYD domains-containing protein 3 (Mus musculus) (UniProt Q8R4B8); assay: Inhibition of NLRP3 inflammasome in LPS primed mouse J774.A1 cells assessed as inhibition of IL-1 beta secretion in cell supernatant at 1 to 5 uM preincubated with compound for 1 hr followed by nigericin stimulation and measured after 1 hr by Western blot analysis; type: cell-based; settings: dose 1-5 µM, time 2.0 hrs
Chain of NACHT, LRR and PYD domains-containing protein 3 (Mus musculus) (Q8R4B8 whole entry, the tested form may be a part): as above

[8] = target: NACHT, LRR and PYD domains-containing protein 3 (Mus musculus) (UniProt Q8R4B8); assay: Inhibition of NLRP3 inflammasome activation in LPS primed mouse BMDM cells assessed as decrease in IL-1 beta production preincubated with compound for 1 hr followed by nigericin stimulation and measured after 1 hr by ELISA method; type: cell-based; settings: dose 1-5 µM, time 2.0 hrs
[9] = target: NACHT, LRR and PYD domains-containing protein 3 (Mus musculus) (UniProt Q8R4B8); assay: Inhibition of NLRP3 inflammasome activation in LPS primed mouse J774.A1 cells assessed as reduction in cleaved gasdermin-D at 1 to 5 uM preincubated with compound for 1 hr followed by nigericin stimulation and measured after 1 hr by ELISA method; type: cell-based; settings: dose 1-5 µM, time 2.0 hrs
[10] = target: NACHT, LRR and PYD domains-containing protein 3 (Mus musculus) (UniProt Q8R4B8); assay: Inhibition of NLRP3 inflammasome activation in LPS primed mouse J774.A1 cells assessed as reduction in lactate dehydrogenase at 1 to 5 uM preincubated with compound for 1 hr followed by nigericin stimulation and measured after 1 hr by ELISA method; type: cell-based; settings: dose 1-5 µM, time 2.0 hrs
[11] = system: J774.A1; assay: Inhibition of mitochondrial ROS production in LPS/nigericin stimulated mouse J774.A1 cells at 1 to 5 uM pretreated for 1 hr with compound and LPS followed by nigericin treatment for 1 hr by MitoSOX staining based immunofluorescence analysis; type: functional, cell-based; settings: dose 1-5 µM, time 2.0 hrs
[12] = system: Mus musculus; assay: Anti-inflammatory activity against LPS-induced peritonitis C57BL/6 mouse model assessed as inhibition of IL-1 beta level in serum at 25 to 100 mg/kg, IG by ELISA analysis; type: functional, organism-based; settings: dose 25-100 mg/kg
[13] = target: NACHT, LRR and PYD domains-containing protein 3 (Mus musculus) (UniProt Q8R4B8); assay: Inhibition of NLRP3 inflammasome activation in LPS primed mouse J774.A1 cells assessed as decrease in IL-1 beta production preincubated with compound for 1 hr followed by nigericin stimulation and measured after 1 hr by ELISA method; type: cell-based; settings: dose 1-5 µM, time 2.0 hrs
[14] = target: NACHT, LRR and PYD domains-containing protein 3 (Mus musculus) (UniProt Q8R4B8); assay: Inhibition of NLRP3 inflammasome in LPS primed mouse J774.A1 cells assessed as inhibition of caspase-1 maturation at 1 to 5 uM preincubated with compound for 1 hr followed by nigericin stimulation and measured after 1 hr by Western blot analysis; type: cell-based; settings: dose 1-5 µM, time 2.0 hrs
[15] = system: Mus musculus; assay: Anti-inflammatory activity against LPS-induced peritonitis C57BL/6 mouse model assessed as inhibition of IL-1 beta level in peritoneal fluid at 25 to 100 mg/kg, IG by ELISA analysis; type: functional, organism-based; settings: dose 25-100 mg/kg

IC50 [2] [µM] | SMILES | CC50 [1] [µM] | also measured
5.53 | Cc1coc2c1C(=O)C(=O)c1c-2ccc2c1C(OC(=O)c1cccc(O)c1)CCC2(C)C (centres undefined) | 18.2 | –
0.61 | Cc1coc2c1C(=O)C(=O)c1c-2ccc2c1C=CCC2(C)C | 61.8 | –
2.57 | Cc1coc2c1C(=O)C(=O)c1c-2ccc2c1C(OC(=O)c1ccc(O)cc1)CCC2(C)C (centres undefined) | 14.5 | –
> 40 | Cc1coc2c3ccc4c(c3c3ocnc3c12)CCCC4(C)C | > 100 | –
> 40 | Cc1c(-c2ccccc2)oc2c1C(=O)C(=O)c1c-2ccc2c1CCCC2(C)C | > 100 | –
1.25 | CC(=O)OC1CCC(C)(C)c2ccc3c(c21)C(=O)C(=O)c1c(C)coc1-3 (centres undefined) | 36.5 | –
1.27 | Cc1coc2c1C(=O)C(=O)c1c-2ccc2c1C(OC(=O)CCCCC1CCSS1)CCC2(C)C (centres undefined) | 26.8 | –
9.11 | COc1cc(/C=C/C(=O)OC2CCC(C)(C)c3ccc4c(c32)C(=O)C(=O)c2c(C)coc2-4)cc(OC)c1OC (centres undefined) | 60.2 | –
4.3 | Cc1c(S(=O)(=O)O)oc2c1C(=O)C(=O)c1c-2ccc2c1CCCC2(C)C [TANSHINONE IIA SULFONIC ACID] | > 100 | –
5.21 | Cc1c(Br)oc2c1C(=O)C(=O)c1c-2ccc2c1CCCC2(C)C | > 100 | –
5.15 | Cc1coc2c1C(=O)C(=O)c1c-2ccc2c1CCCC2(C)C [TANSHINONE IIA] | > 100 | –
0.48 | Cc1coc2c1C(=O)C(=O)c1c-2ccc2c1C(OC(=O)c1ccccc1O)CCC2(C)C (centres undefined) | 30.8 | Activity [3]: 60%; selectivity ratio [4]: 62.1; Activity [5]: 56%; inhibition [6]: Dose-Dependent Effect; inhibition [7]: Active; inhibition [8]: Dose-Dependent Effect; inhibition [9]: Active; inhibition [10]: Active; inhibition [11]: Active; Activity [12]: Active; inhibition [13]: Dose-Dependent Effect; inhibition [14]: Active; Activity [15]: Active
3.6 | Cc1coc2c1C(=O)C(=O)c1c-2ccc2c1C(OC(=O)c1cc(Cl)ccc1Cl)CCC2(C)C (centres undefined) | 19.7 | –
